pEC50: −log10 of the molar value.
Target: RIPK1 (recombinant GST-RIPK1 kinase domain, residues 1-327) (Homo sapiens (Human), UniProt Q13546)
Experiment: RIPK1-ADP-Glo Enzymatic Assay
Assay type: biochemical
Conditions: ADP-Glo; 25 nM GST-RIPK1, 300 μM ATP; assay lower limit ~25 nM; read-out: RIPK1 V0 Ec50
In short: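 Inhibition of ADP formation was measured after compound and enzyme (25 nM) were pre-incubated for 30 minutes at ambient temperature and the kinase reaction ran for 150 minutes at 300 μM ATP with dephosphorylated MBP substrate. EC50 values come from ten-point curves fitted non-linearly.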

Sequence of RIPK1 (recombinant GST-RIPK1 kinase domain, residues 1-327) (Q13546 1-327): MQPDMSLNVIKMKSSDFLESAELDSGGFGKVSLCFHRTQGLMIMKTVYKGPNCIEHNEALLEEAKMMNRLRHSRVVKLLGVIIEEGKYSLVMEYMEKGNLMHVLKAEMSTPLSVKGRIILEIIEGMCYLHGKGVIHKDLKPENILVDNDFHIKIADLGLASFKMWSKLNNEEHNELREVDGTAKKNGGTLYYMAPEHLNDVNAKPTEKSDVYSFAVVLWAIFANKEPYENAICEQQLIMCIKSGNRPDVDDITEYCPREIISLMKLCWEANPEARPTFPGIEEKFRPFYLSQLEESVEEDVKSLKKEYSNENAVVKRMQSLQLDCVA

Compound | pEC50
O=C1N2[C@@H](CC[C@H]2c2ccccc2)OC12CCN(c1ccc(-c3ncco3)c3ccnn13)CC2 [Example 21.22, (5′S,7a′R)-1-[4-(1,3-oxazol-2-yl)pyrazolo[1,5-a]pyridin-7-yl]-5′-phenyltetrahydro-3′H-spiro[piperidine-4,2′-pyrrolo[2,1-b][1,3]oxazol]-3′-one] | > 7.60
Cc1nc(N2CCC3(CC2)O[C@@H]2CC[C@@H](c4cc(F)cc(F)c4)N2C3=O)ncc1F [Example 4.61, (5′S,7a′R)-5′-(3,5-difluorophenyl)-1-(5-fluoro-4-methylpyrimidin-2-yl)tetrahydro-3′H-spiro[piperidine-4,2′-pyrrolo[2,1-b] [1,3]oxazol]-3′-one] | 7.27
N#Cc1cnnc(N2CCC3(CC2)O[C@@H]2CC[C@@H](c4cc(F)cc(F)c4)N2C3=O)c1 [Example 4.19, 6-[(5′S,7a′R)-5′-(3,5-difluorophenyl)-3′-oxotetrahydro-1H,3′H-spiro[piperidine-4,2′-pyrrolo[2,1-b] [1,3]oxazol]-1-yl]pyridazine-4-carbonitrile] | 6.32
O=C(c1ncc(F)cc1F)N1CCC2(CC1)O[C@@H]1CC[C@@H](c3cc(F)cc(F)c3)N1C2=O [Example 6.89, (5′S,7a′R)-5′-(3,5-difluorophenyl)-1-(3,5-difluoropyridine-2-carbonyl)tetrahydro-3′H-spiro[piperidine-4,2′-pyrrolo[2,1-b] [1,3]oxazol]-3′-one] | 7.45
Cc1nnc(N2CC3(C2)O[C@@H]2CC[C@@H](c4ccccc4F)N2C3=O)o1 [Example 4.273, (5′S,7a′R)-5′-(2-fluorophenyl)-1-(5-methyl-1,3,4-oxadiazol-2-yl)tetrahydro-3′H-spiro[azetidine-3,2′-pyrrolo[2,1-b] [1,3]oxazol]-3′-one] | 6.25
N#CCc1nc(C(=O)N2CCC3(CC2)O[C@@H]2CC[C@@H](c4cc(F)cc(F)c4)N2C3=O)cs1 [Example 6.29, {4-[(5′S,7a′R)-5′-(3,5-difluorophenyl)-3-oxo-tetrahydro-1H,3′H-spiro[piperidine-4,2′-pyrrolo[2,1-b][1,3]oxazole]-1-carbonyl]-1,3-thiazol-2-yl} acetonitrile] | 6.38
N#Cc1cc(N2CCC3(CC2)N=C2CC[C@@H](c4cc(F)cc(F)c4)N2C3=O)ncn1 [Example 4.80, (S)-[5′-(3,5-difluorophenyl)-3′-oxo-6′,7′-dihydro-1H,3′H,5′H-spiro[piperidine-4,2′-pyrrolo[1,2-a]imidazol]-1-yl]pyrimidine-4-carbonitrile] | 6.31
Cc1cnn(-c2cc(N3CCC4(CC3)O[C@@H]3CC[C@@H](c5ccccc5)N3C4=O)ncn2)c1 [Example 4.26, (5′S,7a′R)-1-[6-(4-methyl-1H-pyrazol-1-yl)pyrimidin-4-yl]-5′-phenyltetrahydro-3′H-spiro[piperidine-4,2′-pyrrolo[2,1-b] [1,3]oxazol]-3′-one] | 7.61
O=C1N2[C@@H](CC[C@H]2c2ccccc2)OC12CCN(c1cc(-n3cccn3)ncn1)CC2 [Example 4.174, (5′S,7a′R)-5′-phenyl-1-[6-(1H-pyrazol-1-yl)pyrimidin-4-yl]tetrahydro-3′H-spiro[piperidine-4,2′-pyrrolo[2,1-b] [1,3]oxazol]-3′-one] | > 7.60
Cn1nccc1C(=O)N1CCC2(CC1)O[C@@H]1CC[C@@H](c3cc(F)cc(F)c3)N1C2=O [Example 5.38, (5′S,7a′R)-5′-(3,5-difluoro-phenyl)-1-(1-methyl-1H-pyrazole-5-carbonyl)tetra-hydro-3′H-spiro[piperi-dine-4,2′-pyrrolo[2,1-b]oxazol]-3′-one] | 6.99
N#Cc1ccc(N2CCC3(CC2)OC2CCC(c4cnccn4)N2C3=O)n2ncnc12 (stereo not shown) [Example 4.141, 5-[3′-oxo-5′-(pyrazin-2-yl)tetrahydro-1H,3′H-spiro[piperidine-4,2′-pyrrolo[2,1-b] [1,3]oxazol]-1-yl][1,2,4]triazolo[1,5-a] pyridine-8-carbonitrile] | > 7.60

The remaining lines, values ahead:

pEC50 | Compound
6.30 | O=C(c1ccccc1)N1CCC2(CC1)SC1CC[C@H](c3cc(F)cc(F)c3)N1C2=O (stereo partly drawn) [Example 1.21, (5′R)-1-benzoyl-5′-(3,5-difluorophenyl)tetrahydro-3′H-spiro[piperidine-4,2′-pyrrolo[2,1-b]thiazol]-3′-one]
6.88 | O=C1N2[C@@H](CC[C@H]2c2ccccc2)OC12CCN(c1csc(C(F)F)c1)CC2 [Example 11.26, (5′S,7a′R)-1-[5-(difluoromethyl)thiophen-3-yl]-5′-phenyltetrahydro-3′H-spiro[piperidine-4,2′-pyrrolo[2,1-b][1,3]oxazol]-3′-one]
> 7.60 | CCc1ccc(N2CCC3(CC2)O[C@@H]2CC[C@@H](c4ccccc4)N2C3=O)n2ncnc12 [Example 4.221, (5′S,7a′R)-1-(8-ethyl[1,2,4]triazolo[1,5-a]pyridin-5-yl)-5′-phenyltetrahydro-3′H-spiro[piperidine-4,2′-pyrrolo[2,1-b] [1,3]oxazol]-3′-one]
7.43 | O=C(c1ccccc1Cl)N1CCC2(CC1)O[C@@H]1CC[C@@H](c3cc(F)cc(F)c3)N1C2=O [Example 6.78, (5′S,7a′R)-1-(2-chloro-benzene-1-carbonyl)-5′-(3,5-difluorophen-yl)tetrahydro-3′H-spiro[piperidine-4,2′-pyrrolo[2,1-b][1,3]-oxazol]-3′-one]
7.57 | Cn1ccc(C(=O)N2CCC3(CC2)O[C@@H]2CC[C@@H](c4cc(F)cc(F)c4)N2C3=O)c1 [Example 5.47, (5′S,7a′R)-5′-(3,5-difluoro-phenyl)-1-(1-methyl-1H-pyrrole-3-carbonyl)tetra-hydro-3′H-spiro[piperidine-4,2′-pyrrolo[2,1-b]oxazol]-3′-one]
7.58 | O=C(c1ccccc1)N1CCC2(CC1)O[C@@H]1CC[C@@H](c3ccc4sccc4c3)N1C2=O [Example 17.2, (5′S,7a′R)-5′-(benzo[b]thiophen-5-yl)-1-benzoyltetrahydro-3′H-spiro[piperidine-4,2′-pyrrolo[2,1-b]oxazol]-3′-one]
> 7.60 | O=C(c1ccccc1)N1CCC2(CC1)SC1CC[C@@H](c3cc(F)cc(F)c3)N1C2=O (stereo partly drawn) [Example 1.22, (5′S)-1-benzoyl-5′-(3,5-difluorophenyl)tetrahydro-3′H-spiro[piperidine-4,2′-pyrrolo[2,1-b]thiazol]-3′-one]
> 7.60 | O=C(c1ccc(F)cc1F)N1CCC2(CC1)O[C@@H]1CC[C@@H](c3ccccc3)N1C2=O [Example 5.11, (5′S,7a′R)-1-(2,4-difluoro-benzene-1-carbonyl)-5′-phenyltetrahydro-3′H-spiro[piperidine-4,2′-pyrrolo[2,1-b][1,3]oxazol]-3′-one]
> 7.60 | O=C(c1cccc(C2CC2)c1)N1CCC2(CC1)O[C@@H]1CC[C@@H](c3cccc(F)c3)N1C2=O [Example 6.118, (5′S,7a′R)-1-(3-cyclopropylbenzene-1-carbonyl)-5′-(3-fluorophenyl)tetra-hydro-3′H-spiro [piperidine-4,2′-pyrrolo[2,1-b][1,3]oxazol]-3′-one]
> 7.60 | O=C1N2[C@@H](CC[C@H]2c2cccc(F)c2)OC12CCN(c1cc(-c3ccccc3)ncn1)CC2 [Example 4.125, (5′S,7a′R)-5′-(3-fluorophenyl)-1-(6-phenylpyrimidin-4-yl)tetrahydro-3′H-spiro[piperidine-4,2′-pyrrolo[2,1-b] [1,3]oxazol]-3′-one]
7.46 | Cc1ocnc1C(=O)N1CCC2(CC1)O[C@@H]1CC[C@@H](c3ccccc3)N1C2=O [Example 6.146, (5′S,7a′R)-1-(5-methyl-1,3-oxazole-4-carbonyl)-5′-phenyl-tetrahydro-3′H-spiro [piperidine-4,2′-pyrrolo[2,1-b][1,3]oxazol]-3′-one]
7.25 | Cc1cnc([C@@H]2CC[C@H]3OC4(CCN(C(=O)c5ccccc5)CC4)C(=O)N32)cn1 [Example 6.143, (5′S,7a′R)-1-(benzene-carbonyl)-5′-(5-meth-ylpyrazin-2-yl)tetra-hydro-3′H-spiro [piperidine-4,2′-pyrrolo[2,1-b][1,3]oxazol]-3′-one]
> 7.60 | CC1CN(C(=O)c2ccccc2)CCC12O[C@@H]1CC[C@@H](c3cc(F)cc(F)c3)N1C2=O (stereo partly drawn) [Example 6.109, (5′S,7a′R)-1-(benzene-carbonyl)-5′-(3,5-difluorophenyl)-3-methyltetrahydro-3′H-spiro[piperidine-4,2′-pyrrolo[2,1-b][1,3]-oxazol]-3′-one]
7.60 | O=C1N2[C@@H](CC[C@H]2c2ccccc2)OC12CCN(c1ncc(-c3nccs3)cn1)CC2 [Example 21.12, (5′S,7a′R)-5′-phenyl-1-[5-(1,3-thiazol-2-yl)pyrimidin-2-yl]tetrahydro-3′H-spiro[piperidine-4,2′-pyrrolo[2,1-b][1,3]oxazol]-3′-one]
6.08 | CC1CC2(CCN1C(=O)c1ccccc1)O[C@@H]1CC[C@@H](c3cc(F)cc(F)c3)N1C2=O (stereo partly drawn) [Example 6.105, (4R,5′S,7a′R)-1-(benzenecarbonyl)-5′-(3,5-difluorophenyl)-2-methyltetrahydro-3′H-spiro[piperidine-4,2′-pyrrolo[2,1-b] [1,3]oxazol]-3′-one]
> 7.60 | O=C(c1cc(F)ccc1F)N1CCC2(CC1)O[C@@H]1CC[C@@H](c3cccc(F)c3)N1C2=O [Example 1.6, (5′S,7a′R)-1-(2,5-difluorobenzene-1-carbonyl)-5′-(3-fluorophenyl)tetrahydro-3′H-spiro[piperidine-4,2′-pyrrolo[2,1-b] [1,3]oxazol]-3′-one]
> 7.60 | Cc1cc(N2CCC3(CC2)O[C@@H]2CC[C@@H](c4ccccc4)N2C3=O)ncc1[N+](=O)[O-] [Example 4.207, (5′S,7a′R)-1-(4-methyl-5-nitropyridin-2-yl)-5′-phenyltetrahydro-3′H-spiro[piperidine-4,2′-pyrrolo[2,1-b] [1,3]oxazol]-3′-one]

— patent US12180226B2, “Spirotricycle RIPK1 inhibitors and methods of uses thereof” (Merck Sharp & Dohme LLC, priority 2021, dated 2024)
